Reference: patent publication US20250249013A1, “COMBINATION METABOLIC-EPIGENETIC TREATMENT FOR EARLY LUNG CANCER” (THE REGENTS OF THE UNIVERSITY OF CALIFORNIA, priority 2022, published 2025)

What was measured:
KP mice carrying LUADs [1] = assay: Combination treatment trial in KP mice, tumor burden by bioluminescence imaging; type: in vivo, mouse; details: 6 weeks from week 2, empagliflozin 10 mg/kg/d, tazemetostat 125 mg/kg/bid, oral gavage
Method: (§1) Lung tumors were induced by intranasal administration of Adeno-Cre (purchased from University of Iowa Viral Vector Core) as previously described (Scafoglio et al., 2018), or by transthoracic injection of Adeno-Cre in KPluc mice. All treatment trials were performed 2 weeks after tumor induction, and the results of biological duplicates were pooled for statistical analysis. In all trials, mice were assigned to therapeutic groups so that there were no significant differences in baseline tumor burden, age, sex, or weight among the different groups.
In the combination treatment trial (FIG. 3F-G), mice received the first BLI measurement two weeks post-AdenoCre administration for measurement of the baseline tumor burden. Four therapeutic groups were established as follows: (i) Placebo (n=11), receiving oral gavage of vehicle (DMSO 5%, PEG 30%, Tween80 10%); (ii) SGLT2 inhibitor Empaglifozin (10 mg/Kg/d, n=13); (iii) EZH2 inhibitor Tazemetostat (125 mg/Kg/bid, n=10); (iiii) Empaglifozin and Tazemetosat (n=19). Each group received bi-daily administration by oral gavage.

KP mice carrying LUADs [2] = assay: KP mice treated with empagliflozin for 4 weeks: RT-PCR on lung tumors; type: in vivo, mouse; details: vs placebo
Method: as §1
In the trial for assessment of tumor differentiation by RT-PCR (FIGS. 1F and 6C) mice (n=3) received intranasal AdenoCre and treatment with either placebo (0.5% hypromellose-methyl cellulose) or empagliflozin (10 mg/Kg/d by oral gavage) for 4 weeks, followed by tumor collection and RNA extraction. RT-PCR was performed in technical triplicates, yielding a total of 9 experimental points per group.
(§2) Total RNA was extracted from A549, NCI-H358 and 2953A by using TRI Reagent Solution (Applied Biosystem), according to manufacturer instruction. RNA concertation was assayed by Nanodrop 3000 spectrophotometer (Thermo Fisher Scientific). Then, 1 μg of RNA was treated with DNase I (Thermo Fisher Scientific) and used for cDNA preparation.
(§3) cDNA was prepared using 1 μg of RNA with SuperScript IV Reverse Transcriptase (Invitrogen). SYBR green-based RT-PCR kit (Biorad) was performed using human and mouse primers (See Table EV11). mRNA levels were normalized to GAPDH (ΔCt=Ctgene of interest-Ct GAPDH) and presented as relative mRNA expression (ΔΔCt=2-(ΔCtsample-ΔCtcontrol)). All primers were designed by NCBI Primer-BLAST and purchased from Integrated DNA Technologies.

KP mice carrying LUADs [3] = assay: ELISA for H3K27me3 in KP tumors after empagliflozin; type: in vivo, mouse; details: transthoracic AdenoCre, empagliflozin for 1 week, vs placebo
Method: For the measurement of in vivo HeK27 trimethylation (FIG. 3B), mice (n=4 per group) received transthoracic adenoCre and were treated for 3 weeks with either placebo (0.5% hypromellose-methyl cellulose) or empagliflozin (10 mg/Kg/d by oral gavage) followed by lung collection and histone extraction for ELISA assay.
The levels of trimethylation on H3K27me3 in tumors treated with empaglifozin were detected by ELISA kits (Active Motif) according to the manufacturer's instructions. The experiment was carried out with 4 replicates for each group. After tumor collecting, histone extraction was performed.
We used H3K27me3 and H3 total antibodies for plate coating. The absorbance was detected by Varioskan Lux (Thermo Fisher Scientific). The H3K27me3 levels were normalized to H3 total and presented as optical densitometry (O. D.) 450 nm of a ratio of H3K27me3/H3.

KP mice carrying LUADs [4] = assay: KP mice treated with empagliflozin, ex vivo BLI, then tail vein re-injection of sorted tumor cells in syngeneic mice; set-up: species or system mouse
Method: For our studies on the investigation of cell aggressiveness due to the glucose deprivation, we used syngeneic FVB mice. Two experiments were performed, in biological duplicate.
In the second experiment (FIG. 2G-J), KP mice injected transthoracically with AdenoCre were treated for 3 weeks with either placebo (n=3) or empagliflozin (n=3), and sacrificed for lung collection. Tumors were identified in the murine lungs by ex vivo bioluminescence and dissociated. Tumor single cells were resuspended in cold PBS followed by magnetic beads sorting (Miltenyi Biotec) to isolate the Epcam-positive epithelial cells. Finally, sorted tumor cells were injected by tail vein inoculation (1,000,000 cells/mouse) into syngeneic mice (n=6 per group). Tumor burden was measured by bioluminescence until 13 weeks after inoculation.

KP mice carrying LUADs [5] = assay: KP mice treated with empagliflozin for 6 weeks: lung histology (H&E) and IHC; type: in vivo, mouse
Method: as §1
In the trial for assessment of tumor differentiation by immunohistochemistry (FIG. 1A-E, 6L-M, and EV1A-C) lung tumors were induced by intranasal administration of Adeno-Cre. After tumor induction, mice (n=11 for placebo and 13 for empagliflozin group) were treated with either placebo (DMSO 5%, PEG 30%, Tween80 10%) or empagliflozin (10 mg/Kg/d by oral gavage) for 6 weeks and then sacrificed for lung collection and fixation in formalin.
For the GEMMs, the mouse lungs were collected and inflated with 10% formalin in phosphate-buffered saline. After 24 hours, formalin was replaced to 70% ethanol. All tissues were paraffin-embedded and sliced into […] sections in the Translational Pathology Core Laboratory (TPCL) at UCLA.
For IHC staining, the slides were deparaffinized by overnight incubation at 65° C., followed by rehydration by serial passages in xylenes (three washes of 5 min in 100% xylenes) and decreasing concentrations of ethanol (two washes in 100% ethanol, two washes in 95%, one wash in 80%, one wash in 70%, and one wash in water). Antigen retrieval was performed for 23 min in AR6 (pH 6.0) buffer.
Blocking was performed with 5% goat serum for 1 hour at room temperature, followed by incubation with primary antibodies overnight at 4° C. Incubation with biotin-labeled secondary antibody was performed at room temperature for 1 hour, followed by incubation with avidin-biotin peroxidase complex and ImmPACT 3,3′-diaminobenzidine (DAB). Counterstain was performed with Harris' haematoxylin diluted 1:5 in water, followed by […] step and mounting slide. After the staining, digital images of the slides were obtained with an Aperio ScanScope slide scanner (Leica Biosystems). The quantification was performed using the QPath software. Briefly, regions of interests were drawn blindly in each slide to include each tumor present in a whole-lung section, followed by cell detection and quantification of the DAB signal using a constant threshold for all samples in the same experiment. Staining intensity in each cell was classified as negative (0), weak (1), median (2), or strong (3). The results were expressed as H score.
QuPath (Bankhead et al, 2017) was used for signal quantification in IHC staining. It was expressed as H score. Kaplan-Meier curves were performed with Kaplan-Meir Plotter tool (Gyorffy, 2021), using the lung cancer section. For the selected genes only, the best probe was used. All dataset available were used as cohort. For Kaplan-Meier plot performed using multiple genes, the option “use mean expression of selected genes” was set.

PANC1 = assay: αKG rescue of FoxA2 in low glucose, western blot; type: cell-based, human; details: PANC1 pancreas cancer cells, low glucose 5 days
Method: (§4) For the glutamine deprivation experiment, A549 and NCI-H358 cell lines were also seeded and grown up to 5 days in DMEM without glutamine and glucose (Corning Cat. #17-207CV) and complemented with L-glutamine (GlutaMAX CTS, Gibco) to a final concentration of either 6 mM (high glutamine) or 2 mM (low glutamine) and D-Glucose to a final concentration of either 10 mM (high glucose) or 1 mM (low glucose). Finally, breast cancer (MCF7) and pancreatic cancer (PANC1) cell lines were purchased from ATCC and were seeded and grown up to 5 days in RPM11640 complemented with D-Glucose to a final concentration of either 20 mM or 1 mM.
(§5) All αKG rescue experiments were conducted using 10 mM alpha-ketoglutarate (α-KG; Sigma) and α-Mannitol (Sigma) as osmotic control.
(§6) SDS-PAGE and Western blotting analyses were performed using standard protocols. For antibodies information, see Reagents and Tools Table. Western blot images were detected by iBright Imaging Systems (Thermo Fisher Scientific). The protein detected was normalized to Actin or H3 total antibodies, this last in case of histonic extract. Each immunodetection derived from the same membrane was performed with the same exposure times according to the manufacture's antibody guidelines and was cropped only for presentation purposes; this is indicated by a dotted line.

MCF7 = assay: αKG rescue of FoxA2 in low glucose, western blot; type: cell-based, human; details: MCF7 breast cancer cells, low glucose 5 days
Method: as §4, §5, §6

NCI-H358 cells = assay: αKG rescue in low glucose, western blot and RT-PCR; type: cell-based, human; details: NCI-H358, 2 hours in low glucose, αKG
Method: (§7) Human lung cancer A549 (CCL-185) and NCI-H358 (CRL-5807) cells lines were purchased from American Type Culture Collection (ATCC, Manassas, VA). Cells were maintained in culture according to manufacturer protocol using Roswell Park Memorial Institute (RPMI) 1640 medium (Corning, Cat. #10-040CV) supplemented with 10% FBS and 5% 1× Pen-Strep and kept in 37° C. and 5% of CO2. Murine 2953A cell line was established in our lab from a KP lung tumor by tissue dissociation. This cell line was maintained in culture in Dulbecco's modified Eagle Medium (DMEM) medium (Corning, Cat. #10-017CV) with 5% FBS and 5% 1× Pen-Strep.
(§8) All experiments in cell lines were performed in biological triplicate. Cells were seeded at same confluence and grown for 5 days (and for some experiments overnight or up to 9 days or 30 days, as indicated in the figures and text) in different concentration of glucose: high (20 mM), low (1 mM) and for some experiments medium (5 mM), as indicated. We used mediums with glutamine and without glucose: RPMI (Corning Cat. #10-043CV) for A549 and NCI-H358 cells, DMEM (ThermoScientific Cat. #11566025) for 2953A cells, supplemented with 10% FBS, 5% of 1× Pen-Strep and complemented with D-Glucose to the desired final concentration, as indicated in the figures.
as §5
(§9) For total protein extraction, cells were harvested, washed twice with ice-cold PBS-EDTA (0.5 mm EDTA), lysed using RIPA buffer (50 mM Tris-HCl pH 7.6, 150 mM NaCl, 0.1% SDS, 0.5% C24H39NaO4, 1% NP-40, 2 mm EDTA, 50 mm NaF) for 15 min on ice and centrifuged at 13,000 rpm for 30 min at +4° C. The resulting protein extracts were quantified using BCA protein assay followed by analysis by SDS-PAGE and Western blotting.
(§10) Histones was extracted from A549, NCI-H358 and 2953A cell lines using the Histone extraction kit (Abcam) according to manufacturer instructions.
as §6, §2, §3

A549 cells = assay: αKG rescue in low glucose, western blot and RT-PCR; type: cell-based, human; details: A549, 2 hours in low glucose, αKG
Method: as §7, §8, §5, §9, §10, §6, §2, §3

[6] = test system: long non-coding RNA HIFAL; assay: Expression of HIFAL in low glucose with αKG; type: cell-based; details: cell line not stated (Fig. EV5F-G)
Method: as §5, §3

[7] = KP tumors week 6, empagliflozin 4 weeks
[8] = empagliflozin 10 mg/kg/d, 6 weeks, vs placebo

Q: For OC[C@H]1O[C@@H](c2ccc(Cl)c(Cc3ccc(O[C@H]4CCOC4)cc3)c2)[C@H](O)[C@@H](O)[C@@H]1O [empagliflozin], which “tumor burden by bioluminescence imaging, compared with placebo” value (KP mice carrying LUADs [1]) is on record?
A: significantly reduced

Q: What about the “HIF1α RNA levels, RT-PCR” value (KP mice carrying LUADs [2]; KP murine tumors, empagliflozin 4 weeks) of the same compound?
A: significant up-regulation

Q: And the “surfactant protein C (SpC) expression, qPCR” value (KP mice carrying LUADs [2]; KP tumors collected week 6 post-induction, empagliflozin 10 mg/kg/d 4 weeks)?
A: significant reduction

Q: What about the “FoxA2 expression, qPCR” value (KP mice carrying LUADs [2]; [7]) of the same compound?
A: significant reduction

Q: And the “FoxJ1 expression (ciliated cell marker), qPCR” value (KP mice carrying LUADs [2]; [7])?
A: reduced expression

Q: What about the “HmgA2 expression, qPCR” value (KP mice carrying LUADs [2]; [7]) of the same compound?
A: increase

Q: What about the “Pdpn expression (type I alveolar cell marker), qPCR” value (KP mice carrying LUADs [2]; [7]) of the same compound?
A: reduced expression

Q: What about the “Scgb3A2 expression (Clara cell marker), qPCR” value (KP mice carrying LUADs [2]; [7]) of the same compound?
A: reduced expression

Q: And the “Ttf1 expression, qPCR” value (KP mice carrying LUADs [2]; [7])?
A: significant reduction

Q: What about the “tri-methylation on H3K27 (H3K27me3 over total H3), ELISA” value (KP mice carrying LUADs [3]) of the same compound?
A: significant increase

Q: What about the “tumor burden, ex vivo BLI” value (KP mice carrying LUADs [4]; KP mice, empagliflozin week 2 to week 5 after transthoracic AdenoCre, vs placebo) of the same compound?
A: significantly reduced

Q: And the “tumors formed after re-injection of treated tumor cells in syngeneic mice, BLI” value (KP mice carrying LUADs [4]; same number of sorted epithelial cells by tail vein, BLI at week 13, vs placebo group)?
A: formed larger tumors than the placebo group

Q: What about the “differentiation of lung lesions, visual inspection of H&E staining” value (KP mice carrying LUADs [5]; empagliflozin 10 mg/kg/d oral gavage, week 2 to week 8 post-AdenoCre, vs placebo) of the same compound?
A: more poorly differentiated

Q: And the “clear cell component of tumors” value (KP mice carrying LUADs [5]; empagliflozin 10 mg/kg/d, 6 weeks, completely absent from placebo tumors)?
A: some of the tumors in the empagliflozin group had a clear cell component

Q: And the “E-cadherin IHC signal (H score)” value (KP mice carrying LUADs [5]; [8])?
A: significant down-regulation

Q: What about the “FoxA2 IHC signal (H score)” value (KP mice carrying LUADs [5]; [8]) of the same compound?
A: significant reduction

Q: What about the “Ttf-1 IHC signal (H score)” value (KP mice carrying LUADs [5]; [8]) of the same compound?
A: significant reduction

Q: What about the “micropapillary component of murine tumors, pathological quantification” value (KP mice carrying LUADs [5]; [8]) of the same compound?
A: increasing

Q: What about the “solid component of murine tumors, pathological quantification” value (KP mice carrying LUADs [5]; [8]) of the same compound?
A: significantly reducing

Q: O=C(O)CCC(=O)C(=O)O [αKG, alpha-ketoglutarate] was tested. Which “low glucose-induced FoxA2 down-regulation, western blot” value (PANC1) did it give?
A: rescued

Q: What about the “low glucose-induced FoxA2 down-regulation, western blot” value (MCF7) of the same compound?
A: rescued

Q: What about the “activation of HIF1α after short-time glucose deprivation, western blot” value (NCI-H358 cells) of the same compound?
A: rescued

Q: And the “activation of HIF1α after short-time glucose deprivation, western blot” value (A549 cells)?
A: rescued

Q: And the “activation of HIFAL in low glucose” value [6]?
A: completely rescued
